Here are results for 14 molecules from patent US20260116920A1, “HUMAN TRANSFERRIN RECEPTOR BINDING PEPTIDE” (PEPTIDREAM INC., priority 2021, published 2026).

Molecules are shown by their SMILES. Positions of bridges follow the written chain, without caps; N, C: chain ends. Non-standard residues stand in square brackets, D forms with d. Residues, ends and D or L forms follow the SMILES beside them. *: point of attachment. Trp(1-CH2COOH) = N[C@@H](Cc1cn(CC(=O)O)c2ccccc12)C(=O)O; NMePhe(3-Cl) = CN[C@@H](Cc1cccc(Cl)c1)C(=O)O; 3Pal(6-NH2) = Nc1ccc(C[C@H](N)C(=O)O)cn1; Lys(N3) = [N-]=[N+]=NCCCC[C@H](N)C(=O)O; NMeY = CN[C@@H](Cc1ccc(O)cc1)C(=O)O; 3Pal = N[C@@H](Cc1cccnc1)C(=O)O; 4Pal = N[C@@H](Cc1ccncc1)C(=O)O; Carboxymethyl = O=C(O)C*

This test addresses T1, human transferrin receptor (hTfR) (Homo sapiens, UniProt P02786).
T1 construct: made in house
Briefly: Evaluation of molecular interaction between transferrin receptor (hTfR) and peptide using surface plasmon resonance (SPR). In kind it is binding. The conditions noted are these: KD class for binding to hTfR by SPR; peptide with the linker shown in the same line; 'low signal indicates no activity'; read-out: SPR. In short, it runs like this:
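Steps: NTA chip loaded with NiCl2, activated with EDC/NHS, coated with 0.5 μM hTfR dimer, capped with ethanolamine. Peptides diluted from DMSO stock into running buffer (pH 8.0, 1.0% DMSO) at 5–100 nM and injected in single-cycle mode. Sensorgrams fitted to give KD.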
A general note: In SPR one partner is held on a chip, and binding of the other changes the refractive index at the surface.

T1 sequence (P02786 89-760 limits assumed): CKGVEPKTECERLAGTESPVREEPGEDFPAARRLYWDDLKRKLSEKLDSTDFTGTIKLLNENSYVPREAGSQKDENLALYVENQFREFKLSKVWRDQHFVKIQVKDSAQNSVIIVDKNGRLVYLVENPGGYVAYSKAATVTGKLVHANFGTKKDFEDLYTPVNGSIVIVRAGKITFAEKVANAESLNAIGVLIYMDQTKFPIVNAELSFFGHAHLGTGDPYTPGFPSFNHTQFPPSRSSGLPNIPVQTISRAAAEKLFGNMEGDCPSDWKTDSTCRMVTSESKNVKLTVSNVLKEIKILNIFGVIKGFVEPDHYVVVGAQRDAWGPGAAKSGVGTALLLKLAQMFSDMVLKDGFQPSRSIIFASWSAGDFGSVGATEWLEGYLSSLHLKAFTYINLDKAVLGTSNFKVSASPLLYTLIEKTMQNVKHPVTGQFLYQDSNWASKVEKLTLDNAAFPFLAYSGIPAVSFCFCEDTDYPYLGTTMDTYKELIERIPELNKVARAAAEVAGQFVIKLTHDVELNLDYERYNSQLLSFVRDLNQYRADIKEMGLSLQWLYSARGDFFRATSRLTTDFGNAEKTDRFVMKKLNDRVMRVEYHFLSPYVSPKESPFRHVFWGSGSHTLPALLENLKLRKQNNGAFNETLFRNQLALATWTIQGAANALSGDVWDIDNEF

In the case of `CC[C@H](C)[C@@H]1NC(=O)[C@H](Cc2ccc(OC)cc2)NC(=O)[C@H](Cc2ccc(O)cc2)NC(=O)[C@H](CC(N)=O)NC(=O)[C@H](Cc2c[nH]c3ccc(Cl)cc23)NC(=O)[C@H](C(C)C)NC(=O)[C@H](Cc2ccc(F)cc2)N(C)C(=O)[C@H](C(C)C)NC(=O)[C@H](C)NC(=O)CSC[C@@H](C(=O)NCC(=O)N[C@@H](CCCCN=[N+]=[N-])C(N)=O)NC(=O)[C@H](Cc2ccc(O)cc2)N(C)C(=O)[C@H](Cc2ccc(O)cc2)NC(=O)[C@H](CCCNC(=N)N)NC(=O)[C@H](CCCNC(=N)N)NC(=O)[C@H]([C@@H](C)CC)NC1=O` [894_3163], the Kd lay within 1 to 100 nM. As to `CC[C@H](C)[C@@H]1NC(=O)[C@H](Cc2ccc(OC)cc2)NC(=O)[C@H](Cc2ccc(O)cc2)NC(=O)[C@H](CC(N)=O)NC(=O)[C@H](Cc2c[nH]c3ccccc23)NC(=O)[C@H](C(C)C)NC(=O)[C@H](Cc2cccc(Cl)c2)N(C)C(=O)[C@H](C(C)C)NC(=O)[C@H](C)NC(=O)CSC[C@@H](C(=O)NCC(=O)N[C@@H](CCCCN=[N+]=[N-])C(N)=O)NC(=O)[C@H](Cc2ccc(O)cc2)N(C)C(=O)[C@H](Cc2ccc(O)cc2)NC(=O)[C@H](CCCNC(=N)N)NC(=O)[C@H](CCCNC(=N)N)NC(=O)[C@H]([C@@H](C)CC)NC1=O` [894_3164], the Kd was in the range of 1 to 100 nM. As for `CC[C@H](C)[C@@H]1NC(=O)[C@H](Cc2ccc(OC)cc2)NC(=O)[C@H](Cc2ccc(O)cc2)NC(=O)[C@H](CC(N)=O)NC(=O)[C@H](Cc2c[nH]c3ccccc23)NC(=O)[C@H](C(C)C)NC(=O)[C@H](Cc2cccc(Cl)c2)N(C)C(=O)[C@H](C(C)C)NC(=O)[C@H](C)NC(=O)CSC[C@@H](C(=O)NCC(=O)N[C@@H](CCCCN=[N+]=[N-])C(N)=O)NC(=O)[C@H](Cc2ccc(O)cc2)N(C)C(=O)[C@H](Cc2ccc(O)cc2)NC(=O)[C@H](CCCNC(=N)N)NC(=O)[C@H](CCCCN)NC(=O)[C@H]([C@@H](C)CC)NC1=O` [894_3165], the Kd was in the range of 1 to 100 nM. For the molecule `CC[C@H](C)[C@@H]1NC(=O)[C@H](Cc2ccc(OC)cc2)NC(=O)[C@H](Cc2ccc(O)cc2)NC(=O)[C@H](CC(N)=O)NC(=O)[C@H](Cc2c[nH]c3ccccc23)N(C)C(=O)[C@H](C(C)C)NC(=O)[C@H](Cc2cccc(Cl)c2)N(C)C(=O)[C@H](C(C)C)NC(=O)[C@H](C)NC(=O)CSC[C@@H](C(=O)NCC(=O)N[C@@H](CCCCN=[N+]=[N-])C(N)=O)NC(=O)[C@H](Cc2ccc(O)cc2)N(C)C(=O)[C@H](Cc2ccc(O)cc2)NC(=O)[C@H](CCCNC(=N)N)NC(=O)[C@H](CCCNC(=N)N)NC(=O)[C@H]([C@@H](C)CC)NC1=O` [894_3166], the Kd is 1 to 100 nM. In the case of `CC[C@H](C)[C@@H]1NC(=O)[C@H](Cc2ccc(OCC(=O)O)cc2)NC(=O)[C@H](Cc2ccc(O)cc2)NC(=O)[C@H](CC(N)=O)NC(=O)[C@H](Cc2cn(CC(=O)O)c3ccccc23)NC(=O)[C@H](C(C)C)NC(=O)[C@H](Cc2cccc(Cl)c2)N(C)C(=O)[C@H](C(C)C)NC(=O)[C@H](C)NC(=O)CSC[C@@H](C(=O)NCC(=O)N[C@@H](CCCCN=[N+]=[N-])C(N)=O)NC(=O)[C@H](Cc2ccc(O)cc2)N(C)C(=O)[C@H](Cc2ccccc2)NC(=O)[C@H](CCCNC(=N)N)NC(=O)[C@H](CCCNC(=N)N)NC(=O)[C@H]([C@@H](C)CC)NC1=O` [894_3171], the Kd is 1 to 100 nM. For `CC[C@H](C)[C@@H]1NC(=O)[C@H](Cc2ccc(OCC(=O)O)cc2)NC(=O)[C@H](Cc2ccc(O)cc2)NC(=O)[C@H](CC(N)=O)NC(=O)[C@H](Cc2cn(CC(=O)O)c3ccccc23)NC(=O)[C@H](C(C)C)NC(=O)[C@H](Cc2cccc(Cl)c2)N(C)C(=O)[C@H](C(C)C)NC(=O)[C@H](C)NC(=O)CSC[C@@H](C(=O)NCC(=O)N[C@@H](CCCCN=[N+]=[N-])C(N)=O)NC(=O)[C@H](Cc2ccc(O)cc2)N(C)C(=O)[C@H](Cc2ccccc2)NC(=O)[C@H](CCCNC(=N)N)NC(=O)[C@H](CCC(=O)NCCOCCOCCOCCOCCOCCOCCOCCOC)NC(=O)[C@H]([C@@H](C)CC)NC1=O` [894_3172], the Kd fell in the range of 1 to 100 nM. With `CC[C@H](C)[C@@H]1NC(=O)[C@H](Cc2ccc(OCC(=O)O)cc2)NC(=O)[C@H](Cc2ccc(O)cc2)NC(=O)[C@H](CC(N)=O)NC(=O)[C@H](Cc2cn(CC(=O)O)c3ccccc23)NC(=O)[C@H](C(C)C)NC(=O)[C@H](Cc2cccc(Cl)c2)N(C)C(=O)[C@H](C(C)C)NC(=O)[C@H](C)NC(=O)CSC[C@@H](C(=O)NCC(=O)N[C@@H](CCCCN=[N+]=[N-])C(N)=O)NC(=O)[C@H](Cc2ccc(O)cc2)N(C)C(=O)[C@H](Cc2ccccc2)NC(=O)[C@H](CCC(=O)NCCOCCOCCOCCOCCOCCOCCOCCOC)NC(=O)[C@H](CCCNC(=N)N)NC(=O)[C@H]([C@@H](C)CC)NC1=O` [894_3173], the Kd is 1 to 100 nM. As to `CC[C@H](C)[C@@H]1NC(=O)[C@H](Cc2ccc(OCC(=O)O)cc2)NC(=O)[C@H](Cc2ccc(O)cc2)NC(=O)[C@H](CC(N)=O)NC(=O)[C@H](Cc2cn(CC(=O)O)c3ccccc23)NC(=O)[C@H](C(C)C)NC(=O)[C@H](Cc2cccc(Cl)c2)N(C)C(=O)[C@H](C(C)C)NC(=O)[C@H](C)NC(=O)CSC[C@@H](C(=O)NCC(=O)N[C@@H](CCCCN=[N+]=[N-])C(N)=O)NC(=O)[C@H](Cc2ccc(O)cc2)N(C)C(=O)[C@H](Cc2ccccc2)NC(=O)[C@H](CCCNC(=N)N)NC(=O)[C@H](CCC(N)=O)NC(=O)[C@H]([C@@H](C)CC)NC1=O` [894_3176], the Kd is 1 to 100 nM. Regarding `CC[C@H](C)[C@@H]1NC(=O)[C@H](Cc2ccc(OCC(=O)O)cc2)NC(=O)[C@H](Cc2ccc(O)cc2)NC(=O)[C@H](CC(N)=O)NC(=O)[C@H](Cc2cn(CC(=O)O)c3ccccc23)NC(=O)[C@H](C(C)C)NC(=O)[C@H](Cc2cccc(Cl)c2)N(C)C(=O)[C@H](C(C)C)NC(=O)[C@H](C)NC(=O)CSC[C@@H](C(=O)NCC(=O)N[C@@H](CCCCN=[N+]=[N-])C(N)=O)NC(=O)[C@H](Cc2ccc(O)cc2)N(C)C(=O)[C@H](Cc2ccccc2)NC(=O)[C@H](CCC(N)=O)NC(=O)[C@H](CCCNC(=N)N)NC(=O)[C@H]([C@@H](C)CC)NC1=O` [894_3177], the Kd lay in the range of 1 to 100 nM. Turning to `CC[C@H](C)[C@@H]1NC(=O)[C@H](Cc2ccc(OCC(=O)O)cc2)NC(=O)[C@H](Cc2ccc(O)cc2)NC(=O)[C@H](CC(N)=O)NC(=O)[C@H](Cc2cn(CC(=O)O)c3ccccc23)NC(=O)[C@H](C(C)C)NC(=O)[C@H](Cc2cccc(Cl)c2)N(C)C(=O)[C@H](C(C)C)NC(=O)[C@H](C)NC(=O)CSC[C@@H](C(=O)NCC(=O)N[C@@H](CCCCN=[N+]=[N-])C(N)=O)NC(=O)[C@H](Cc2ccc(O)cc2)N(C)C(=O)[C@H](Cc2ccccc2)NC(=O)[C@H](CCC(N)=O)NC(=O)[C@H](CCC(N)=O)NC(=O)[C@H]([C@@H](C)CC)NC1=O` [894_3178] ({CH2CO}-AV[NMePhe(3-Cl)]V[Trp(1-CH2COOH)]NYY(Carboxymethyl)IIQQF[NMeY]CG[Lys(N3)]-NH2; thioether N-15), the Kd fell in the range of 1 to 100 nM. Turning to `CC[C@H](C)[C@@H]1NC(=O)[C@H](Cc2cccnc2)NC(=O)[C@H](Cc2ccc(O)cc2)NC(=O)[C@H](CC(N)=O)NC(=O)[C@H](Cc2cn(CC(=O)O)c3ccccc23)NC(=O)[C@H](C(C)C)NC(=O)[C@H](Cc2cccc(Cl)c2)N(C)C(=O)[C@H](C(C)C)NC(=O)[C@H](C)NC(=O)CSC[C@@H](C(=O)NCC(=O)N[C@@H](CCCCN=[N+]=[N-])C(N)=O)NC(=O)[C@H](Cc2ccc(O)cc2)N(C)C(=O)[C@H](Cc2ccncc2)NC(=O)[C@H](CCCNC(=N)N)NC(=O)[C@H](CCCNC(=N)N)NC(=O)[C@H]([C@@H](C)CC)NC1=O` [894_3185] ({CH2CO}-AV[NMePhe(3-Cl)]V[Trp(1-CH2COOH)]NY[3Pal]IIRR[4Pal][NMeY]CG[Lys(N3)]-NH2; thioether N-15), the Kd was in the range of 1 to 100 nM. Take `CC[C@H](C)[C@@H]1NC(=O)[C@H](Cc2cccnc2)NC(=O)[C@H](Cc2ccc(N)nc2)NC(=O)[C@H](CC(N)=O)NC(=O)[C@H](Cc2cn(CC(=O)O)c3ccccc23)NC(=O)[C@H](C(C)C)NC(=O)[C@H](Cc2cccc(Cl)c2)N(C)C(=O)[C@H](C(C)C)NC(=O)[C@H](C)NC(=O)CSC[C@@H](C(=O)NCC(=O)N[C@@H](CCCCN=[N+]=[N-])C(N)=O)NC(=O)[C@H](Cc2ccc(O)cc2)N(C)C(=O)[C@H](Cc2ccncc2)NC(=O)[C@H](CCCNC(=N)N)NC(=O)[C@H](CCCNC(=N)N)NC(=O)[C@H]([C@@H](C)CC)NC1=O` [894_3186] ({CH2CO}-AV[NMePhe(3-Cl)]V[Trp(1-CH2COOH)]N[3Pal(6-NH2)][3Pal]IIRR[4Pal][NMeY]CG[Lys(N3)]-NH2; thioether N-15): the Kd lay in the range of 1 to 100 nM. `CC[C@H](C)[C@@H]1NC(=O)[C@H](Cc2ccc(OC)cc2)NC(=O)[C@H](Cc2ccc(N)nc2)NC(=O)[C@H](CC(N)=O)NC(=O)[C@H](Cc2cn(CC(=O)O)c3ccccc23)NC(=O)[C@H](C(C)C)NC(=O)[C@H](Cc2cccc(Cl)c2)N(C)C(=O)[C@H](C(C)C)NC(=O)[C@H](C)NC(=O)CSC[C@@H](C(=O)NCC(=O)N[C@@H](CCCCN=[N+]=[N-])C(N)=O)NC(=O)[C@H](Cc2ccc(O)cc2)N(C)C(=O)[C@H](Cc2ccncc2)NC(=O)[C@H](CCCNC(=N)N)NC(=O)[C@H](CCCNC(=N)N)NC(=O)[C@H]([C@@H](C)CC)NC1=O` [894_3187]: the Kd lay within 1 to 100 nM.

In the case of `CC[C@H](C)[C@@H]1NC(=O)[C@H](Cc2cccnc2)NC(=O)[C@H](Cc2ccc(O)cc2)NC(=O)[C@H](CC(N)=O)NC(=O)[C@H](Cc2c[nH]c3ccccc23)NC(=O)[C@H](C(C)C)NC(=O)[C@H](Cc2cccc(Cl)c2)N(C)C(=O)[C@H](C(C)C)NC(=O)[C@H](C)NC(=O)CSC[C@@H](C(=O)NCC(=O)N[C@@H](CCCCN=[N+]=[N-])C(N)=O)NC(=O)[C@H](Cc2ccc(O)cc2)N(C)C(=O)[C@H](Cc2ccncc2)NC(=O)[C@H](CCCNC(=N)N)NC(=O)[C@H](CCCNC(=N)N)NC(=O)[C@H]([C@@H](C)CC)NC1=O` [894_3188] ({CH2CO}-AV[NMePhe(3-Cl)]VWNY[3Pal]IIRR[4Pal][NMeY]CG[Lys(N3)]-NH2; thioether N-15), the Kd lay in the range of 1 to 100 nM.
